From patent publication US20080280951A1, “Salt Il” (ASTRAZENECA AB, priority 2005, published 2008)
Where two headings read alike, the source gives them in different places.

Tests used:
[1] = Estimated solubility of the salt in organic solvents; assay type: physicochemical; conditions: organic solvent or mixture
Description: (a) Form B was prepared by dissolving, in a vial, 20% w of a sample of the furoate salt prepared by the method of Example 1(b) (Form A) in a solvent such as ethanol (16 mg/ml) or 2-butanol (8 mg/ml). The figures in brackets indicate the estimated solubility of the salt in these solvents. The vial was then sealed and the suspension was homogenised at ambient temperature (20° C.) using a magnet. Stirring and temperature were maintained for a period of at least 7 days after which time a sample of the material obtained was dried and tested by XRPD. XRPD confirmed that there had been complete transformation of Form A to Form B.

[2] = Hygroscopicity determination (vapor sorption); assay type: physicochemical; conditions: room temperature (25° C.)
Description: Hygroscopicity Determination
The weight change of a test sample at room temperature (25° C.) and at 80% relative humidity (RH) was investigated by recording adsorption-desorption isotherms using a symmetric vapor-sorption analyser SGA-100 (VTI Corporation) using different methods, the main features being: a single sorption/desorption cycle from 0 to 90% RH in 10% RH steps with a dm/dt trigger value of 0.002%, (dm/dt=change in mass with time—when the balance stability is within this value the next step is automatically started, however, if those conditions are not achieved there is a default maximum time for each step of 6 hours). Approximately 2 to 10 mg of the test sample was placed in a sample holder and exposed to different relative humidities.

[3] = target: T1, human CCR1 (Homo sapiens, UniProt P32246); assay: Human CCR1 binding assay; conditions: HEK-CCR1 membranes, displacement of 33 pM [125I] MIP-1α
T1 construct: expressed in transfected cells; membrane preparation
T1 sequence (P32246 1-355): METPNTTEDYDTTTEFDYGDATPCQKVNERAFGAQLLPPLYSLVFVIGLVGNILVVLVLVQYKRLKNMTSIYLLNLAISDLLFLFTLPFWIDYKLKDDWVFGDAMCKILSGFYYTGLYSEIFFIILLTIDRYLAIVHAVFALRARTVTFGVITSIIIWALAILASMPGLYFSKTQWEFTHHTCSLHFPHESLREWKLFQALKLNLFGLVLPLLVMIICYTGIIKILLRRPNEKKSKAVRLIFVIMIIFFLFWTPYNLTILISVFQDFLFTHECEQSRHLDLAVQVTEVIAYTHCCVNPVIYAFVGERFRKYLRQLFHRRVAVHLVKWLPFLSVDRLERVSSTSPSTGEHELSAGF
Description: HEK293 cells, from ECACC, stably expressing recombinant human CCR1 (HEK-CCR1) were used to prepare cell membranes containing CCR1. The membranes were stored at −70° C. The concentration of membranes of each batch was adjusted to 10% specific binding of 33 pM [^125I] MIP-1α.
100 μL of HEK-CCR1 membranes diluted in assay buffer pH 7.4 (137 mM NaCl (Merck, Cat No 1.06404), 5.7 mM Glucose (Sigma, Cat No G5400), 2.7 mM KCl (Sigma, Cat No P-9333), 0.36 mM NaH2PO4×H2O (Merck, Cat No 1.06346), 10 mM HEPES (Sigma, Cat No H3375), 0.1% (w/v) Gelatine (Sigma, Cat No G2625)) with the addition of 17500 units/L Bacitracin (Sigma, Cat No B 1025) were added to each well of the 96 well filter plate (0.45 μm opaque Millipore cat no MHVB N4550). […] 12 μl assay buffer with 10% DMSO was added to certain wells (without compound) to detect maximal binding (B0).
12 μL [^125I] MIP-1α, diluted in assay buffer to a final concentration in the wells of 33 pM, was added to all wells. The plates with lid were then incubated for 1.5 hrs at room temperature. After incubation the wells were emptied by vacuum filtration (MultiScreen Resist Vacuum Manifold system, Millipore) and washed once with 200 μl assay buffer. After the wash, all wells received an addition of 50 μL of scintillation fluid (OptiPhase “Supermix”, Wallac Oy, Turko, Finland). Bound [^125I] MIP-1α was measured using a Wallac Trilux 1450 MicroBeta counter. […]

| solubility ([1]; solvent 2-butanol, read-out: estimated solubility of the salt in 2-butanol) [mg/mL] | solubility ([1]; solvent ethanol, read-out: estimated solubility of the salt in ethanol) [mg/mL] | Water Uptake (% w/w) at 80% RH [2] [% w/w] | IC50 [3] [nM] | SMILES |
| --- | --- | --- | --- | --- |
| 8 | 16 | <0.8 |  | CC(=O)Nc1ccc(O)cc1OC[C@@](C)(O)CNC1CCN(Cc2ccc(Cl)cc2)CC1 [Form A, N-{2-[((2S)-3-{[1-(4-chlorobenzyl)piperidin-4-yl]amino}-2-hydroxy-2-methylpropyl)oxy]-4-hydroxyphenyl}acetamide furoate] |
|  |  |  | < 50 | CC(=O)Nc1ccc(O)cc1OC[C@@](C)(O)CNC1CCN(Cc2ccc(Cl)cc2)CC1 [N-{2-[((2S)-3-{[1-(4-chlorobenzyl)piperidin-4-yl]amino}-2-hydroxy-2-methylpropyl)oxy]-4-hydroxyphenyl}acetamide ditrifluoroacetate] |
